Measurements as given in ChEMBL document CHEMBL1201862, “PubChem BioAssay data set” (2004).
Calls of active or inactive are those of the source.

Tests used:
[1] = molecular target: T1, Type-1 angiotensin II receptor (Homo sapiens, UniProt P30556); test: AT1 receptor antagonists, dose response, selectivity assay for APJ receptor antagonist project, cell-based, uHTS hits (AID 463214); assay type: functional;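 further: antagonist potency against angiotensin II stimulated AT1 response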
T1 sequence (P30556 whole entry): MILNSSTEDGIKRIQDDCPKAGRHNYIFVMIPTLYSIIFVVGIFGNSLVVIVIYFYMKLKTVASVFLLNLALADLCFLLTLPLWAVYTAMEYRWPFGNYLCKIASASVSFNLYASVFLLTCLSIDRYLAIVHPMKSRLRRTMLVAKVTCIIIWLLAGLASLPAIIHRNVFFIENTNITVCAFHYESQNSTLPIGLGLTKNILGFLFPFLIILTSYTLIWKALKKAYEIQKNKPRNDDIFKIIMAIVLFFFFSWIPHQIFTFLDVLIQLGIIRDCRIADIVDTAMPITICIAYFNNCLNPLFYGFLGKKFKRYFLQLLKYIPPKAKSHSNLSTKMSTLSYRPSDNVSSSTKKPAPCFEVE

Beta-galactosidase = Beta-galactosidase (Escherichia coli, UniProt Q8VNN2); test: PubChem AID 485352; assay type: functional
[2] = molecular target: T2, Replicative DNA helicase DnaB (Mycobacterium tuberculosis, UniProt P9WMR3); test: DnaB intein splicing inhibitors, dose response, biochemical, cell-free fluorescence (AID 449749); assay type: functional
T2 sequence (P9WMR3 whole entry): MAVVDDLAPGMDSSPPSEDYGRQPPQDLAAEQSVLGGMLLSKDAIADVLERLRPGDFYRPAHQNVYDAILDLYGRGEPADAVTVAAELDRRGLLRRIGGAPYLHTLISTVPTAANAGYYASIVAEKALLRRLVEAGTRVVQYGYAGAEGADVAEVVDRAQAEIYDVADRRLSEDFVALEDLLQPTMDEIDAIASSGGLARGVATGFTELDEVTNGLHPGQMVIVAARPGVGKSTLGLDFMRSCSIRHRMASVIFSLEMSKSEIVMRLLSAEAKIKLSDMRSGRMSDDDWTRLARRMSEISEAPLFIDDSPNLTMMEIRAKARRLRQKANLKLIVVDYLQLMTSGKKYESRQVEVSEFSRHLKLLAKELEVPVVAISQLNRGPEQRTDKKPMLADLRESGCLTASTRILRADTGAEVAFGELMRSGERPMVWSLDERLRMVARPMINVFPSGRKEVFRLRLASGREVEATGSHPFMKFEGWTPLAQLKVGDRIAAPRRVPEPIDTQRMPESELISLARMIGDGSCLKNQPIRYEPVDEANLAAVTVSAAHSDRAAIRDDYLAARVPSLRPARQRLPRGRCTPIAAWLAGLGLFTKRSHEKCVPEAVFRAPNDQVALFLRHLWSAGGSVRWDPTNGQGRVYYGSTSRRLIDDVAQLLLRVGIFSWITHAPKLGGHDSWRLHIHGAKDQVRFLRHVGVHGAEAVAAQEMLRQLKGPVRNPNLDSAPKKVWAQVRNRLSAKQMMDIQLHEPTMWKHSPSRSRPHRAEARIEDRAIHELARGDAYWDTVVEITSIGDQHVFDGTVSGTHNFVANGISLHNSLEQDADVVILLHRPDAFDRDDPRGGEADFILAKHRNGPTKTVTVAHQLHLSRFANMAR

Protein RecA = molecular target: T3, Protein RecA (Mycobacterium tuberculosis, UniProt P9WHJ3); test: Fluorescence Cell-Free Homogeneous Dose Retest to Identify Inhibitors of RecA-Intein Splicing Activity. [Related pubchem assays (depositor defined):AID2097, AID2223, AID489010, AID492950]; assay type: functional
T3 sequence (P9WHJ3 whole entry): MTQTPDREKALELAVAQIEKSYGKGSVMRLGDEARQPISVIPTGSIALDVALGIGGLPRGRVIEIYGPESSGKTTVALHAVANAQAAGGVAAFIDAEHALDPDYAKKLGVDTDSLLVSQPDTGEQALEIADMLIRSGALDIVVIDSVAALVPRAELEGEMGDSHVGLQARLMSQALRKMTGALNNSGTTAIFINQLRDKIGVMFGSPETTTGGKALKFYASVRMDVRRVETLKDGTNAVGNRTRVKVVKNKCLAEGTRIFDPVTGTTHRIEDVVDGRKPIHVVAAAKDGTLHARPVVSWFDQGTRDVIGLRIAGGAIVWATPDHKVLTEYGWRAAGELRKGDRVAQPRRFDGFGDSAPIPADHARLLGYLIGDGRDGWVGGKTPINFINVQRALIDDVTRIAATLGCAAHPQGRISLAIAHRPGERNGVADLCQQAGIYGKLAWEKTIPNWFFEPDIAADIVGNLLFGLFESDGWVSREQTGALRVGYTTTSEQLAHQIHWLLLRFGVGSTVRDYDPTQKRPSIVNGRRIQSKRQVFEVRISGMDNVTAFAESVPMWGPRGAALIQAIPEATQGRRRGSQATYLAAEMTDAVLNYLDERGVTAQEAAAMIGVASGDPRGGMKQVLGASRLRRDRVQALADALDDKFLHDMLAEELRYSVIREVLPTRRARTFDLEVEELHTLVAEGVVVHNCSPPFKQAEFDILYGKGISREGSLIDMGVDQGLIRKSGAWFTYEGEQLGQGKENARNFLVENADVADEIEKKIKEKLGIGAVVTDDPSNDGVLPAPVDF

[3] = HEp-2 cell cytotoxicity, dose response, cytotoxicity control for RSV inhibitor project, HTS (AID 2410); assay type: functional; conditions: human respiratory syncytial virus
[4] = molecular target: T4, Short transient receptor potential channel 4 (Mus musculus, UniProt Q9QUQ5); test: mouse TRPC4 channel inhibitors, dose response, cell-based, HEK293 TRPC4/mu-opioid, Fluo-4 calcium (AID 434942); assay type: functional;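 further: potency of inhibitors blocking the TRPC4 calcium response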
T4 sequence (Q9QUQ5 whole entry): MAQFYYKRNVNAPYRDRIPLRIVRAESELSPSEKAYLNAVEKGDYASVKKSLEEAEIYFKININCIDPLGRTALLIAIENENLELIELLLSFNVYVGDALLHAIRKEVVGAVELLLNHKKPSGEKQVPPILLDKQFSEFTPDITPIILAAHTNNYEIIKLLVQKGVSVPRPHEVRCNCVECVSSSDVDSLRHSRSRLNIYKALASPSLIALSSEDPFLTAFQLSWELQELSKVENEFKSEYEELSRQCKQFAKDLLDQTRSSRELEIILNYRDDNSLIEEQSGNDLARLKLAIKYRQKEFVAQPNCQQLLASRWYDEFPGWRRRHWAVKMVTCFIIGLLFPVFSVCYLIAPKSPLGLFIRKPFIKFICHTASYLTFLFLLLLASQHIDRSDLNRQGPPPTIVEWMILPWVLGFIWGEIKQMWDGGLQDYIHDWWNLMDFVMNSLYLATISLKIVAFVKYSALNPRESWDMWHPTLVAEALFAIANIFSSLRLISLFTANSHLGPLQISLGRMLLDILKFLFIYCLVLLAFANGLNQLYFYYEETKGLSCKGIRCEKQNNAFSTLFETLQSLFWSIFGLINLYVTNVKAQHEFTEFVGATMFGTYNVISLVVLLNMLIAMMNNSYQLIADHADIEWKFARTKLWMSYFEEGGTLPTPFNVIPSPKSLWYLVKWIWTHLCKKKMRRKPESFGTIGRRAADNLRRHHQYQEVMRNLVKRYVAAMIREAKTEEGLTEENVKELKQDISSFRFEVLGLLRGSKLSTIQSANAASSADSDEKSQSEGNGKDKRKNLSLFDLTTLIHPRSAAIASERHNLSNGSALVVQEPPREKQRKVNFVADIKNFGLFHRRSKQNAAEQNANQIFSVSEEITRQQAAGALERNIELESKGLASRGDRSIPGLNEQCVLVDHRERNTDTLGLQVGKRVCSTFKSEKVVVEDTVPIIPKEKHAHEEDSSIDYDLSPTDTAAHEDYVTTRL

[5] = microbe, parasite or virus in culture; assay type: functional; conditions: Mycobacterium tuberculosis
[6] = inhibitors of intracellular T. cruzi replication, confirmation, NIH3T3 host cells, beta-gal luminescence (AID 2044); assay type: functional, cell-based;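 further: intracellular parasites grown in NIH/3T3 mouse fibroblasts as host cells; luminescent beta-galactosidase reporter signal from transgenic T. cruzi replicating inside host cells; inhibitors lower the luminescence signal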
[7] = cytotoxicity toward NIH3T3 fibroblasts, dose response, counter-screen, cell-based, ATP luminescence, mouse fibroblasts (AID 2010); assay type: functional;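 further: cells exposed to compound for about 90 hours before reading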
[8] = molecular target: T5, High affinity choline transporter 1 (Homo sapiens, UniProt Q9GZV3); test: CHT inhibitors, dose response, cell-based, 5-point CRC, membrane potential dye (AID 504840); assay type: functional
T5 sequence (Q9GZV3 whole entry): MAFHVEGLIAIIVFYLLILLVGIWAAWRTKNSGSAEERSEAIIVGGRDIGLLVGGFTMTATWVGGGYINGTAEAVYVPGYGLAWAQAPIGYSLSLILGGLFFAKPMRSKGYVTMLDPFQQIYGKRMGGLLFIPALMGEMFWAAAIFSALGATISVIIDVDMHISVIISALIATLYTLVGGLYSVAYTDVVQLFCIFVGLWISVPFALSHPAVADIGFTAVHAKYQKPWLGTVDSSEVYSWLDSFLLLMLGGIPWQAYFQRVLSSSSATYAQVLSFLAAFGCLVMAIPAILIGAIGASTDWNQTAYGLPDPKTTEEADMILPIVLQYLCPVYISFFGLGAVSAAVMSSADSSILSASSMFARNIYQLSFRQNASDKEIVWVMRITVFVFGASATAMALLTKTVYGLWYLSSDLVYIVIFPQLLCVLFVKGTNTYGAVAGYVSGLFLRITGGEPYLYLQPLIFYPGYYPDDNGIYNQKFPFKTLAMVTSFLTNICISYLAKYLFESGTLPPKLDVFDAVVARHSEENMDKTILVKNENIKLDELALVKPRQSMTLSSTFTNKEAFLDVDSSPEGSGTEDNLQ

Nonstructural protein 1 = Nonstructural protein 1 (Influenza A virus, UniProt Q194T2); assay type: functional, Influenza A virus (A/California/07/2009(H1N1))
[9] = molecular target: T6, Heat shock factor protein 1 (Mus musculus, UniProt P38532); test: HSF1 potentiators in luciferase reporter cells, confirmation, cell-based, NIH3T3, luminescence, dose retest (AID 435004); assay type: functional;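 further: stress induced by proteasome inhibitor MG132 added 30 min after compound; luciferase reporter driven by HSF1 response element in NIH3T3 cells; actives raise luminescence as potentiators of the MG132 stress response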
T6 sequence (P38532 whole entry): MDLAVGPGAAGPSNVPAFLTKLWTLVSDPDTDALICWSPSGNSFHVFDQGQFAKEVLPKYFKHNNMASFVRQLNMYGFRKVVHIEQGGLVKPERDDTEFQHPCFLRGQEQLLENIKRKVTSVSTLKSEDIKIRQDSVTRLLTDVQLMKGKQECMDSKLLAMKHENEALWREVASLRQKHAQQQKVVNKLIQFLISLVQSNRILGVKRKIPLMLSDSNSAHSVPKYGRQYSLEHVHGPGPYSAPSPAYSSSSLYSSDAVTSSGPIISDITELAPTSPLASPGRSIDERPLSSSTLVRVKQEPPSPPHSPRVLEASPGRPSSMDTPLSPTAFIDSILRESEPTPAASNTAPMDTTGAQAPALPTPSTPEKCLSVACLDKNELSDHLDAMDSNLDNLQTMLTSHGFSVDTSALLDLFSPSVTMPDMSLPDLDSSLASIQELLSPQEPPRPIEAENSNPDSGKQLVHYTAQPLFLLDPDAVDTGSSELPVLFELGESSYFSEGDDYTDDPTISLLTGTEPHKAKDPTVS

[10] = test system: Streptococcus sp. 'group A'; test: growth inhibition of control SK(-) GAS strain, dose response, counter-screen for streptokinase expression inhibitor project, luminescence, kanamycin, BacTiterGlo, confirmation (AID 1900); assay type: functional, organism-based
Vero = test: cells; assay type: functional; conditions: Chlorocebus sabaeus
Streptokinase A = molecular target: T7, Streptokinase A (Streptococcus pyogenes serotype M1, UniProt P10520); test: S. pyogenes streptokinase expression inhibitors, potency, dose response, plasminogen activation absorbance, OD405 (AID 1914); assay type: functional, Streptococcus pyogenes M1 GAS;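 further: secreted streptokinase activity via plasminogen activation per viability signal from cell pellet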
T7 sequence (P10520 whole entry): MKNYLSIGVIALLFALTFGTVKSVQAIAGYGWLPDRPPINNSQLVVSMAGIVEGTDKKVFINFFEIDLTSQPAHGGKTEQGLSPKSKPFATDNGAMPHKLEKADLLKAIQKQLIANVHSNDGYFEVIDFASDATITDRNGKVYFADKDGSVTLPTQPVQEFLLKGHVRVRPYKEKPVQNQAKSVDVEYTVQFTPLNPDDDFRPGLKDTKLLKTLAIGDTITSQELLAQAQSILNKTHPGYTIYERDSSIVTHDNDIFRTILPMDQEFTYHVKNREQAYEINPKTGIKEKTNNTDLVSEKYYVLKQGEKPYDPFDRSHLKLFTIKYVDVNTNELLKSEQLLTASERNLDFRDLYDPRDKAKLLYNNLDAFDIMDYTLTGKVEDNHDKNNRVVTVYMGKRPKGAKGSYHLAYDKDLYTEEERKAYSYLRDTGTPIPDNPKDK

Streptococcus = test: Group A Streptococcus viability loss, dose response, counter-screen for streptokinase expression inhibitor project, luminescence, BacTiterGlo (AID 1915); assay type: functional, organism-based;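 further: potency for reduction of bacterial viability or growth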

Sequence of Beta-galactosidase (Q8VNN2 whole entry): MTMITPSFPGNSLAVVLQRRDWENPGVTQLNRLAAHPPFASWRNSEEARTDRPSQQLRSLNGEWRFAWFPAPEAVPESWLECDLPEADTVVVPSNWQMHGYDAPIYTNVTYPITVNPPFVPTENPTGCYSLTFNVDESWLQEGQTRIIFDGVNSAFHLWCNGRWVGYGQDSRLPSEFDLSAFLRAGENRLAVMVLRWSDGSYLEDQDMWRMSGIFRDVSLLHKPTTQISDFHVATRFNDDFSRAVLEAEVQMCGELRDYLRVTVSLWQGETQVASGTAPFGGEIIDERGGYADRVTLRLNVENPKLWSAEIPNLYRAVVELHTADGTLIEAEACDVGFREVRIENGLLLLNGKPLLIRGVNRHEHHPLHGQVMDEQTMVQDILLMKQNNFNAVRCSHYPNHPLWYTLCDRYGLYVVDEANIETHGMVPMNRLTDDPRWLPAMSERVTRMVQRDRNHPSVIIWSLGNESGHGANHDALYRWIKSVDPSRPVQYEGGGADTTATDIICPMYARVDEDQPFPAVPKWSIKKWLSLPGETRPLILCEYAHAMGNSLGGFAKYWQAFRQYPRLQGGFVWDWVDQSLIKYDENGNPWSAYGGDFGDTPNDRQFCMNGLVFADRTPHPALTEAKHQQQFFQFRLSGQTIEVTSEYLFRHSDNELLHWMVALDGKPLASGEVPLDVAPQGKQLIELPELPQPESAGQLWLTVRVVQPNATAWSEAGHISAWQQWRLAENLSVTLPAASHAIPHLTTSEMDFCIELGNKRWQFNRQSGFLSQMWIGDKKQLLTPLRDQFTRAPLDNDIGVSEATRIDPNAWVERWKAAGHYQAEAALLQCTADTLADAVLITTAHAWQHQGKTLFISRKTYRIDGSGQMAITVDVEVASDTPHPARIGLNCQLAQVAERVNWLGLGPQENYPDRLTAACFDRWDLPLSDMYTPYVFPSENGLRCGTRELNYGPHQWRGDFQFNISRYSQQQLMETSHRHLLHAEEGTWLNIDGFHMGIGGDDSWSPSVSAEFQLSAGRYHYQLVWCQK
Sequence of Nonstructural protein 1 (Q194T2 whole entry): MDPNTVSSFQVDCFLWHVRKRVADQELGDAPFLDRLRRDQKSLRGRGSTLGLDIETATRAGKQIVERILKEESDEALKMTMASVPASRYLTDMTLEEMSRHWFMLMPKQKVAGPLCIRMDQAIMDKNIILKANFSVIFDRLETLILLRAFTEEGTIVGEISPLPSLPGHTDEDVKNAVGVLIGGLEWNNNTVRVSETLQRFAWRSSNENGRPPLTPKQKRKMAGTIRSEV

Cn1cccc1/C=C(/C#N)C(N)=S
IC50 [1]: > 40 µM (not active)
EC50 (Beta-galactosidase): > 40 µM (inactive)

CC(C)OC(=O)CN1C(=O)C(=O)c2ccccc21
IC50 [1]: 5.32 µM (active)
AC50 [2]: 14.3 µM (active)
EC50 (Beta-galactosidase): > 40 µM (inactive)
EC50 (Protein RecA): 8.52 µM (active)

C=CCSc1nc2c(c(=O)[nH]c(=O)n2C)n1C/C=C(/C)Cl
CC50 [3]: 37.2 µM (active)
EC50 [4]: 2.37 µM (active)

CCN(CC)S(=O)(=O)c1ccc2oc(SCC(=O)Nc3cc(C)on3)nc2c1
IC50 [1]: > 40 µM (not active)
CC50 [5]: 11.6 µM (active)
EC50 [6]: > 30 µM (not active)
EC50 [7]: 5.9 µM (active)
EC50 (Beta-galactosidase): > 40 µM (inactive)

NS(=O)(=O)c1ccc(CCNCc2ccccc2OCc2ccc(Cl)cc2)cc1
EC50 [4]: 6.68 µM (active)
IC50 [8]: 11.2 µM (active)

CCc1cc2c(=O)[nH]c(-c3ccccn3)nc2s1
IC50 (Nonstructural protein 1): 14.3 µM (active)
IC50 [1]: 2.91 µM (active)
EC50 [9]: 12.9 µM (active)
EC50 (Beta-galactosidase): > 40 µM (inactive)

COc1ccc(OC)c(/C=C/c2ccc3cccc(O)c3n2)c1
EC50 [10]: 0.323 µM (active)
EC50 [6]: 2.07 µM (active)
CC50 (Vero): 9.5 µM (active)
EC50 (Streptokinase A): > 150 µM (not active)
EC50 [7]: > 30 µM (not active)
EC50 (Streptococcus): 10.7 µM (active)

CN(C)C(CNC(=O)c1oc2ccccc2c1CSc1nc[nH]n1)c1ccco1 (configuration not stated)
EC50 [4]: 8.41 µM (active)

Cc1ccc(NC(=O)CNc2ccccc2CN(C)C2CCCCC2)cc1
EC50 [4]: 2.99 µM (active)
